Results: patent publication US20120010161A1, “NOVEL AZAPEPTIDE OR AZAPEPTIDOMIMETIC COMPOUNDS INHIBITING BCRP AND/OR P-GP” (CENTRE NATIONAL DE LA RECHERCHE SCIENTIFIQUE, priority 2009, published 2012)
Entries after “also recorded” stand apart in the source; their conditions may differ.

Assays:
ABCG2 [1] = target: T1, ABCG2 (Homo sapiens, UniProt Q9UNQ0); test: Type of inhibition: mitoxantrone efflux by ABCG2 at varied substrate and inhibitor concentrations (FIG. 2); assay type: cell-based; parameters: expressed in transfected cells; host or cells: HEK-293 transfected with pcDNA3.1-ABCG2; settings: for type of inhibition of ABCG2: mitoxantrone 0 to 20 μM, inhibitor 0 to 20 μM
T1 sequence (Q9UNQ0 1-655): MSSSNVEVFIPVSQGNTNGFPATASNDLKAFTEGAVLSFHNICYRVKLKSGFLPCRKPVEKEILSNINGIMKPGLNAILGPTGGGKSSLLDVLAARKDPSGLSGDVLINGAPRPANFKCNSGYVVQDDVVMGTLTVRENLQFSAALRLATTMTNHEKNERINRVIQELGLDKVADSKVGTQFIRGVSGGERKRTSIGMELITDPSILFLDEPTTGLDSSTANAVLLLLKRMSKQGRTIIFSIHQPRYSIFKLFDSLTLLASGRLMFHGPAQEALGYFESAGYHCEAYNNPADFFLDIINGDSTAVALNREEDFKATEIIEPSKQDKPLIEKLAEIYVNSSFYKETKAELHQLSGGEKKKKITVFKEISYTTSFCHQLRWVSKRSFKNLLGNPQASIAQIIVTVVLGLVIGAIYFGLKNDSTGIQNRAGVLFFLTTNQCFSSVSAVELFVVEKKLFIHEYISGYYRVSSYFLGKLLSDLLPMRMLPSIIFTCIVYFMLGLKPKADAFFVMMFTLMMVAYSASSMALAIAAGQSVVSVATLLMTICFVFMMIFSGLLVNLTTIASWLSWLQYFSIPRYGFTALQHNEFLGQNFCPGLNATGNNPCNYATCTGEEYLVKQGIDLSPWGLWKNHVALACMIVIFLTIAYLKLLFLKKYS
Procedure: The efflux of mitoxantrone by ABCG2 was measured at substrate concentrations ranging from 0 to 20 μM (panels A-C) in the presence or absence of fixed concentrations of compound (IA.2) in a range from 0 to 20 μM (panels D-E). In FIG. 2, the results obtained by varying the […] concentration are presented as a representation, which is either direct in panel A or of Lineweaver-Burke form in panel B or of Eadie-Hofstee form in panel C. The results obtained by varying the […] concentration are presented in linear (panel D) or logarithmic (panel E) x-axis scale. The curves were adjusted by means of the SigmaPlot software.
This is confirmed by the Lineweaver-Burke and Eadie-Hofstee representations presented, respectively, in FIG. 2B and FIG. 2C. The representations of these two graphs are characteristic of this type of inhibition. The inhibition constant K of compound (IA.2) is estimated as about 1 μM from the adjustment of the points of FIG. 2D or FIG. 2E.

ABCG2 [2] = test: Estimation of the level of expression of ABCG2 (western blot); assay type: cell-based, human; settings: 5 μM, 3 h to 72 h
Procedure: Estimation of the level of expression of ABCG2. The cells HEK293 pcDNA3.1 or HEK293 pcDNA3.1 BCRP are seeded in sixteen 6 cm^2 Petri dishes and incubated for 24 hours at 37° C. under 5% CO2. After this incubation, the various wells are supplemented with 30 μL either of DMSO (controls) or of compound IA.2 dissolved in DMSO, corresponding to a final concentration after dilution of 5 μM. After 3 h, 24 h, 48 h or 72 h of incubation, the cells are trypsinized and centrifuged at 200 g for 5 minutes. The protein fraction is extracted with a hypotonic lysis buffer (10 mM Tris-Cl pH 7.5, 10 mM NaCl, 1 mM MgCl2, 1 mM DTT, protease inhibitors) and assayed with bicinchoninic acid (Sigma-Aldrich). Ten micrograms of this fraction are deposited on polyacrylamide gel of Laemmli type (U. K. Laemmli, Nature 1970, 227, 680) to separate the proteins, which are then transferred onto polyvinyl fluoride (pvdf) membrane for 60 minutes at 100 mA in a 10 mM CAPS pH 11.1 […] buffer, 10% methanol (Sigma-Aldrich). The pvdf membrane is then saturated for 30 minutes in a solution of powdered skimmed milk at 1% (w/v) in TBST buffer (Tris buffer saline 1×, Tween 20 0.1%). […] Revelation is performed using the “immobilon western” kit (Millipore) with the QuantityOne software (Biorad). […]

NIH-3T3 cells = test: Cytotoxicity on cell growth, MTT test; assay type: cell-based; settings: 72 hours
Procedure: The cells are seeded (10 000 cells/well) in 96-well plates and incubated for 24 hours at 37° C. under 5% CO2. Varied concentrations of mitoxantrone (from 0 to 20 μM in a constant final volume of 100 μL) are then added with an equal volume of each of the test compounds. The cells are then left to divide for 72 hours. The cytotoxicity is evaluated colorimetrically with 3-(4,5-dimethylthiazol-2-yl)-2,5-diphenyltetrazolium bromide (MTT).
Increasing concentrations of compound (IB.1) are applied to NIH-3T3 cells expressing or not expressing ABCB1, and whose residual vitality is evaluated after 72 hours of treatment by an MTT test. The results are illustrated in FIG. 9, in which the cells expressing ABCB1 are represented by empty circles, and those not expressing it by solid circles. […] It increases by 30-40% thereafter, but however remains limited to this value, up to a concentration equivalent to 40 times its IC50, whether or not ABCB1 is expressed.

Compound	Ki (ABCG2 [1]; ABCG2, mitoxantrone efflux, from adjustment of FIG. 2D or 2E, read-out: inhibition constant K) [µM]	type of inhibition of ABCG2 (ABCG2 [1])	level of expression of ABCG2 (ABCG2 [2]; HEK293 BCRP cells, vs DMSO)	level of expression of tubulin (control protein) (ABCG2 [2]; HEK293 cells)	increase of cytotoxicity on NIH-3T3 cells (NIH-3T3 cells; above 5 times and up to 40 times its IC50, expressing or not ABCB1)	harmlessness on NIH-3T3 cells (NIH-3T3 cells; cells expressing or not ABCB1)	cytotoxicity on NIH-3T3 cells (NIH-3T3 cells; up to 5 times its IC50)
CC(C)(C)OC(=O)NN(C(=O)N[C@@H](CCCCNC(=O)OCc1ccccc1)C(=O)OC(C)(C)C)c1cccc(C(=O)OCc2ccccc2)c1 [IA.2, tert-Butyl ester of (2S)-6-(benzyloxycarbonylamino)-2-[1-(3′-(benzyloxycarbonyl)phenyl)-2-(tert-butoxycarbonyl)hydrazino-carbonylamino]hexanoic acid]	~1	noncompetitive inhibitor	reduces the level of expression; also recorded: decrease in the level of expression	without affecting			
CC(C)(C)OC(=O)N[C@H](CNN(CCCCCCNC(=O)OCc1ccccc1)C(=O)OC(C)(C)C)CC(=O)OCc1ccccc1 [IB.1, Benzyl ester of (3S)-4-[2-(6-benzyloxycarbonylaminohexyl)-2-tert-butoxycarbonylhydrazino]-3-tert-butoxycarbonylaminobutyric acid]					30-40%	harmlessness	negligible
CC(C)(C)OC(=O)N[C@H](CNN(CCCCCCNC(=O)OCc1ccccc1)C(=O)OCc1ccccc1)CC(=O)OCc1ccccc1 [IB.11, Benzyl ester of (3S)-4-[2-benzyloxycarbonyl-2-(6-benzyloxycarbonylaminohexyl)hydrazino]-3-tert-butoxycarbonyl-aminobutyric acid]		noncompetitive					
